Results from patent US6218380A, “Pharmaceutical compositions” (SmithKline Beecham p.l.c., priority 1991, dated 2001).
Counter-ions that a name gives are not always drawn. Each block holds one compound with its values, some of them ahead of it.

Tests used:
[1] = Blood and tissue levels in female mice; format: in vivo; conditions: oral administration of 100 mg/kg of the sodium salt
[2] = Hydrolysis of ester to clavulanic acid in pH 7 buffer; format: physicochemical; conditions: water buffered to pH7
Experimental: The reaction was followed by paper chromatography (bioautographic system). Using the butanol/ethanol/water system to follow the reaction over a period of 2 hours the zone of the methyl ester of Rf 0.79 decreased in size as the zone of clavulanic acid at Rf 0.12 increased.

Staphylococcus aureus = assay: Antibacterial synergism, microtitre MIC (Example 42); format: cell-based; conditions: method of Example 42
[3] = test system: strains of Klebsiella aerogenes A; assay: Growth inhibition, penicillins with synergist (description); format: cell-based
[4] = test system: strains of Staphylococcus aureus; assay: Growth inhibition (properties of clavulanic acid); format: cell-based
[5] = test system: β-lactamase producing strains of Escherichia coli, Klebsiella aerogenes and Staphylococcus aureus; assay: Synergism with ampicillin (properties of clavulanic acid); format: cell-based
[6] = test system: β-lactamase producing strains of Proteus mirabilis and Staphylococcus aureus; assay: Synergism with cephaloridine (properties of clavulanic acid); format: cell-based
Klebsiella aerogenes 62 = assay: Antibacterial synergism, microtitre MIC (Example 42); format: cell-based; conditions: method of Example 42; unit not given
Klebsiella aerogenes A = assay: as above; format: cell-based; conditions: method of Example 42; unit not given
[7] = test system: Klebsiella aerogenes E 70; assay: as above; format: cell-based; conditions: method of Example 42; unit not given
[8] = test system: Staphylococcus aureus (Russell); assay: M.I.C. with clavulanic acid methyl ester (Example 32); format: cell-based
Proteus mirabilis C889 = assay: as above; format: cell-based

Structure (SMILES): O=C(O)[C@H]1/C(=C/CO)O[C@@H]2CC(=O)N21 [clavulanic acid sodium salt, 3-(β-hydroxyethylidine)-7-oxo-4-oxa-1-azabicyclo[3,2,0]heptane-2-carboxylic acid sodium salt]
Levels of clavulanic acid [1]: useful levels

Hydrolysis to clavulanic acid [2]: slowly hydrolyse to clavulanic acid
Structure (SMILES): COC(=O)[C@H]1/C(=C/CO)O[C@@H]2CC(=O)N21 [clavulanic acid methyl ester]

Structure (SMILES): O=C(Cc1cccs1)N[C@@H]1C(=O)N2C(C(=O)[O-])=C(C[n+]3ccccc3)CS[C@H]12 [Cephaloridine, cephaloridine]
Minimum Inhibitory Concentrations, cephaloridine in presence of 5 μg/ml clavulanic acid sodium salt (Staphylococcus aureus): 3.7 µg/mL

Structure (SMILES): CC1(C)S[C@@H]2[C@H](NC(=O)Cc3ccccc3)C(=O)N2[C@H]1C(=O)O [Benzylpenicillin, benzylpenicillin]
Concentration of penicillin that inhibits growth when 5 μg/ml. of clavulanic acid is also present [3]: less than 12.5 μg/ml

Structure (SMILES): O=C(O)[C@H]1/C(=C/CO)O[C@@H]2CC(=O)N21 [clavulanic acid, Z-(2R,5R)-3-(β-hydroxyethylidene)-7-oxo-4-oxa-1-azabicyclo[3,2,0]heptane-2-carboxylic acid]
Inhibition of growth of strains of Staphylococcus aureus [4]: able to inhibit the growth
Synergism of the antibacterial effect of ampicillin [5]: able to synergise the antibacterial effect of ampicillin
Synergism of the antibacterial effect of cephaloridine [6]: able to synergise the antibacterial effect of cephaloridine

MIC of Ampicillin + 5 μg/ml of Benzyl Ester of clavulanic acid (Klebsiella aerogenes 62): 3.9
MIC of Ampicillin + 5 μg/ml of Methyl Ester of clavulanic acid (Klebsiella aerogenes 62): 3.9
MIC of Ampicillin + 5 μg/ml of Benzyl Ester of clavulanic acid (Klebsiella aerogenes A): 1.9
MIC of Ampicillin + 5 μg/ml of Methyl Ester of clavulanic acid (Klebsiella aerogenes A): 1.9
MIC of Ampicillin + 5 μg/ml of Benzyl Ester of clavulanic acid [7]: 3.9
MIC of Ampicillin + 5 μg/ml of Methyl Ester of clavulanic acid [7]: 3.9
Structure (SMILES): CC1(C)S[C@@H]2[C@H](NC(=O)[C@H](N)c3ccccc3)C(=O)N2[C@H]1C(=O)O [Ampicillin, ampicillin]
M.I.C. of antibiotic in the presence of 1.0 μg/ml. clavulanic acid methyl ester [8]: < 0.4 µg/mL
M.I.C. for ampicillin in the presence of 5 μg/ml. clavulanic acid methyl ester (Proteus mirabilis C889): 31 µg/mL
